From patent US3991202A, “Imidazolium salts” (Janssen Pharmaceutica N.V., priority 1974, dated 1976)

How the values were obtained:
Format in all cases: cell-based
Erysipelothrix insidiosa = assay: Antibacterial growth inhibition in phenol red dextrose broth; settings: Erysipelothrix rhusiopathiae, 168 h; E. ins.; tested at 100, 10, 1 μg/ml; read-out: Concentration in μ g for 100% Growth Inhibition
Procedure: (§1) The tests on bacteria were performed on cultures on phenol red dextrose broth medium (Difco). By using decimal dilution techniques described for the tests for antifungal activity, test media containing 100 μg, 10 μg and 1 μg of imidazolium salt per milliliter of medium were obtained. The inoculum consisted of a platinum loop (5 mm diameter) from a 24 hour broth culture. Forty-eight hours after incubation, subcultures were made from each culture for the determination of antibacterial activity of the imidazolium salts. After seven days of incubation, observations were made to determine the presence or absence of bacterial growth.

Escherichia coli = assay: as above; settings: 168 h, E. coli, tested at 100, 10, 1 μg/ml, read-out: Concentration in μ g for 100% Growth Inhibition
Procedure: as §1

Pseudomonas aeruginosa = assay: as above; settings: 168 h, Ps. aer., tested at 100, 10, 1 μg/ml, read-out: Concentration in μ g for 100% Growth Inhibition
Procedure: as §1

[1] = test system: Staphylococcus hemolyticus; assay: as above; settings: 168 h, Staph., tested at 100, 10, 1 μg/ml, read-out: Concentration in μ g for 100% Growth Inhibition
Procedure: as §1

[2] = test system: Salmonella pullorum gallinarum; assay: as above; settings: Salmonella enterica, 168 h; Sp. G.; tested at 100, 10, 1 μg/ml; read-out: Concentration in μ g for 100% Growth Inhibition
Procedure: as §1

Streptococcus pyogenes = assay: as above; settings: 168 h, Strep., tested at 100, 10, 1 μg/ml, read-out: Concentration in μ g for 100% Growth Inhibition
Procedure: as §1

Microsporum canis = assay: Antifungal growth inhibition in Sabouraud's liquid medium; settings: Microsporum canis, 336 h; M.c.; tested at 100, 10, 1 μg/ml; read-out: Concentrations in μg/ml for 100% Inhibition of Growth
Procedure: (§2) Tests for the control of fungal organisms were performed using Sabouraud's liquid medium (1 g. of neopeptone Difco and 2 g. of glucose Difco per 100 ml. distilled water) in test tubes, each containing 4.5 ml. of liquid medium, autoclaved at 120° C for 15 minutes. The imidazolium salts were prepared for testing by dissolving in 50% ethanol to a concentration of 20 mg./ml. and thereafter diluting with sterile distilled water to obtain a concentration of 10 mg./ml. Successive decimal dilutions were then made with sterile distilled water to prepare a series of test solutions. In carrying out the test, 0.5 ml. of one of the test solutions is added to 4.5 ml. of Sabouraud's liquid medium to obtain a test medium. In this manner, from appropriate test solution, test media containing 100 μg, 10 μg and 1 μg of imidazolium salt per milliliter of medium were obtained.
(§3) Control tubes were prepared by adding 0.5 ml. of sterile distilled water to 4.5 ml. of medium. Ethanol was also added to simulate the amount which would be present in the test media. Filamentous fungi were incubated at 25° C for two to three weeks. A square block of side 2 mm. was excised and inoculated into the liquid medium. A 3-day old culture on Sabouraud's liquid medium was used for yeasts. The inoculum was 0.05 ml. per tube. All cultures were incubated at 25° C for 14 days.

Cryptococcus neoformans = assay: as above; settings: Cryptococcus neoformans, 336 h; Cr.n.; tested at 100, 10, 1 μg/ml; read-out: Concentrations in μg/ml for 100% Inhibition of Growth
Procedure: as §2, §3

Trichophyton rubrum = assay: as above; settings: Trichophyton rubrum, 336 h; Tr.r.; tested at 100, 10, 1 μg/ml; read-out: Concentrations in μg/ml for 100% Inhibition of Growth
Procedure: as §2, §3

[3] = test system: Ctenomyces mentagrophytes; assay: as above; settings: Trichophyton mentagrophytes, 336 h; Ct.m.; tested at 100, 10, 1 μg/ml; read-out: Concentrations in μg/ml for 100% Inhibition of Growth
Procedure: as §2, §3

MIC (Erysipelothrix insidiosa) [µg/mL]	MIC (Escherichia coli) [µg/mL]	MIC (Pseudomonas aeruginosa) [µg/mL]	MIC [2] [µg/mL]	MIC (Streptococcus pyogenes) [µg/mL]	MIC (Microsporum canis) [µg/mL]	MIC (Cryptococcus neoformans) [µg/mL]	MIC (Trichophyton rubrum) [µg/mL]	MIC [3] [µg/mL]	Compound	MIC [1] [µg/mL]
1	10	100	10	1					Fc1ccc(C(c2ccccc2)[n+]2ccn(CC(OCc3ccc(Cl)cc3Cl)c3ccc(Cl)cc3Cl)c2)cc1 (stereo not drawn)	1
1	10	100	10	1					Clc1ccc(Cn2cc[n+](CC(OCc3c(Cl)cccc3Cl)c3ccc(Cl)cc3Cl)c2)c(Cl)c1.[Cl-] (stereo not drawn) [1-(2,4-Dichlorobenzyl)-3-[2,4-dichloro-β-(2,6-dichlorobenzyloxy)phenethyl]imidazolium chloride]	1
10	100	100	10	1					Cc1ccccc1NC(=O)C[n+]1ccn(CC(OCc2c(Cl)cccc2Cl)c2ccc(Cl)cc2Cl)c1 (stereo not drawn) [1-[2,4-dichloro-β-(2,6-dichlorobenzyloxy)phenethyl]-3-(N-o-tolylcarbamoylmethyl)imidazolium chloride]	10
1	10	100	10	1					O=C(C[n+]1ccn(CC(OCc2c(Cl)cccc2Cl)c2ccc(Cl)cc2Cl)c1)Nc1ccc(F)cc1 (stereo not drawn) [1-[2,4-dichloro-β-(2,6-dichlorobenzyloxy)phenethyl]-3-[N-(p-fluorophenyl)carbamoylmethyl]imidazolium chloride]	1
1	10	100	10	1					O.OC(C[n+]1ccn(CC(OCc2ccc(Cl)cc2)c2ccc(Cl)cc2Cl)c1)c1ccc(Cl)cc1.[Br-] (stereo not drawn) [2,4(Cl)2C6H3/CH2C6H4pCl/CH2CHOHC6H4pCl, 1-[β-(p-Chlorobenzyloxy)-2,4-dichlorophenethyl]-3-(p-chloro-β-hydroxyphenethyl)imidazolium bromide hydrate]	1
1	100	100	10	1					O=C(C[n+]1ccn(CC(OCc2ccc(Cl)cc2)c2ccc(Cl)cc2Cl)c1)c1ccc(F)cc1.[Cl-] (stereo not drawn) [2,4(Cl)2C6H3/CH2C6H4pCl/CH2COC6H4pF, 1-[2,4-Dichloro-β-(p-chlorobenzyloxy)phenethyl]-3-(p-fluorophenacyl)imidazolium chloride]	1
10	100	100	10	1					Fc1ccc(CC[n+]2ccn(CC(OCc3ccc(Cl)cc3Cl)c3ccc(Cl)cc3Cl)c2)cc1.O.[Br-] (stereo not drawn) [(CH2)2C6H4pF, 1-[2,4-Dichloro-β-(2,4-dichlorobenzyloxy)phenethyl]-3-(p-fluorophenethyl)imidazolium bromide hydrate]	1
1	100	100	10	1					COc1ccc(CC[n+]2ccn(CC(OCc3ccc(Cl)cc3Cl)c3ccc(Cl)cc3Cl)c2)cc1.[Cl-] (stereo not drawn) [(CH2)2C6H4pOCH3, 1-[2,4-dichloro-β-(2,4-dichlorobenzyloxy)phenethyl]-3-(p-methoxyphenethyl)imidazolium chloride]	1
1	10	100	10	1					Clc1ccc(COC(Cn2cc[n+](CCc3ccccc3)c2)c2ccc(Cl)cc2Cl)c(Cl)c1.[Br-] (stereo not drawn) [(CH2)2C6H5, 1-[2,4-Dichloro-β-(2,4-dichlorobenzyloxy)phenethyl]-3-phenethylimidazolium bromide]	1
1	10	100	10	1					O=C(CCn1cc[n+](CC(OCc2ccc(Cl)cc2Cl)c2ccc(Cl)cc2Cl)c1)Nc1ccccc1Cl.[Cl-] (stereo not drawn) [(CH2)2CONHC6H4oCl, 1-{2-[N-(o-Chlorophenyl)carbamoyl]ethyl}-3-[2,4-dichloro-β-(2,4-dichlorobenzyloxy)phenethyl]imidazolium chloride]	1
					10	1	1	1	O=C(Cn1cc[n+](CC(OCc2ccc(Cl)cc2Cl)c2ccc(Cl)cc2Cl)c1)c1ccc(Cl)cc1Cl.[Cl-] (stereo not drawn) [CH2COC6H32,4(Cl)2, 1-(2,4-dichlorobenzoylmethyl)-3-[2,4-dichloro-β-(2,4-dichlorobenzyloxy)phenethyl]imidazolium chloride]	
					10	10	1	10	COc1cccc(NC(=O)C[n+]2ccn(CC(OCc3ccc(Cl)cc3Cl)c3ccc(Cl)cc3Cl)c2)c1 (stereo not drawn) [CH2CONHC6H4m(OCH3), hydrate]	
					10	10	1	10	O=C(C[n+]1ccn(CC(OCc2ccc(Cl)cc2Cl)c2ccc(Cl)cc2Cl)c1)Nc1ccccc1Cl (stereo not drawn) [CH2CONHC6H4oCl, 1-[N-(o-chlorophenyl)carbamoylmethyl]-3-[2,4-dichloro-β-(2,4-dichlorobenzyloxy)phenethyl]imidazolium chloride]	
					1	100	1	10	O=C(C[n+]1ccn(CC(OCc2ccc(Cl)cc2Cl)c2ccc(Cl)cc2Cl)c1)Nc1ccccc1Oc1ccccc1 (stereo not drawn) [CH2CONHC6H4oOPh, 1-[2,4-dichloro-β-(2,4-dichlorobenzyloxy)phenethyl]-3-[N-(o-phenoxyphenyl)carbamoylmethyl]imidazolium chloride hydrate]	
					1	100	1	10	O=C(C[n+]1ccn(CC(OCc2ccc(Cl)cc2Cl)c2ccc(Cl)cc2Cl)c1)NCc1ccccc1Cl (stereo not drawn) [CH2CONHCH2C6H4oCl, 1-[N-(o-Chlorobenzyl)carbamoylmethyl]3-[2,4-dichloroβ-(2,4-dichlorobenzyloxy)phenethyl]imidazolium chloride]	
					10	100	1	10	Fc1ccc(C(c2ccc(Cl)cc2)[n+]2ccn(CC(OCc3ccc(Cl)cc3Cl)c3ccc(Cl)cc3Cl)c2)cc1 (stereo not drawn) [drawing 61]	
					10	100	1	10	CCCCCCCC[n+]1ccn(CC(OCc2ccc(Cl)cc2Cl)c2ccc(Cl)cc2Cl)c1.[Br-] (stereo not drawn) [nC8H17, 1-[2,4-dichloro-β-(2,4-dichlorobenzyloxy)phenethyl]3-n-octylimidazolium bromide]	
					10	10	10	10	O=C(C[n+]1ccn(CC(OCc2ccc(Cl)cc2)c2ccc(Cl)cc2)c1)c1ccc(F)cc1 (stereo not drawn) [pClC6H4/CH2C6H4pCl/CH2COC6H4pF, 1-[p-Chloro-β-(p-chlorobenzyloxy)phenethyl]-3-(p-flurophenacyl)imidazolium chloride]	
					10	10	10	10	O=C(C[n+]1ccn(CC(OCc2ccc(Cl)cc2Cl)c2ccc(Cl)cc2)c1)c1ccc(F)cc1.[Cl-] (stereo not drawn) [pClC6H4/CH2C6H32,4(Cl)2/CH2COC6H4pF, 1-[p-chloro-β-(2,4-dichlorobenzyloxy)phenethyl]-3-(p-fluorophenacyl)imidazolium chloride]	
